The source of these data is US9029337B2, “Modulation of factor 7 expression” (Isis Pharmaceuticals, Inc., priority 2007, dated 2015).

Strand notation (5' to 3'): a small letter for the sugar, then the base; units joined by * are phosphorothioate-linked, units joined directly phosphodiester-linked; [ ] holds rarer units or linkages, { } end groups; capitals alone tell only the bases. e = 2'-O-(2-methoxyethyl) (MOE); [5mC] = 5-methylcytosine; d = 2'-deoxy (DNA)

For one series, the system named is human Factor 7 mRNA. Kind of series: Antisense inhibition of human Factor 7 mRNA in HepB3 cells, 50 nM antisense oligonucleotide, lipofectin. The series is classed as cell-based. The following applies: Table 6, 50 nM, lipofectin, approximately 24 hours. In outline: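 Cells plated at 4,000 per well were transfected and harvested after approximately 24 hours of treatment. Transcript levels, measured with primer probe set RTS 2927, were normalised to total RNA by RIBOGREEN®. Values are percent inhibition relative to untreated control cells.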
Consider “422263 (antisense eG*eG*dA*dA*dG*dA*dA*dG*dG*dG*dA*d[5mC]*dG*dG*dA*eA*eG*eG*eT*eG) [compound 422263]”, for which the “% Inhibition” value was determined as 19%.
As for “422264 (antisense e[5mC]*eG*dG*dA*dA*dG*dA*dA*dG*dG*dG*dA*d[5mC]*dG*dG*eA*eA*eG*eG*eT) [compound 422264]”, the “% Inhibition” value worked out at 24%.
As to “422265 (antisense eG*e[5mC]*dG*dG*dA*dA*dG*dA*dA*dG*dG*dG*dA*d[5mC]*dG*eG*eA*eA*eG*eG) [compound 422265]”, the “% Inhibition” value was determined as 34%.
As for “422266 (antisense e[5mC]*eG*d[5mC]*dG*dG*dA*dA*dG*dA*dA*dG*dG*dG*dA*d[5mC]*eG*eG*eA*eA*eG) [compound 422266]”, the “% Inhibition” value is given as 13%.
For “422267 (antisense eG*e[5mC]*dG*d[5mC]*dG*dG*dA*dA*dG*dA*dA*dG*dG*dG*dA*e[5mC]*eG*eG*eA*eA) [compound 422267]”, the “% Inhibition” value stood at 38%.
For “422268 (antisense eA*eG*d[5mC]*dG*d[5mC]*dG*dG*dA*dA*dG*dA*dA*dG*dG*dG*eA*e[5mC]*eG*eG*eA) [compound 422268]”, the “% Inhibition” value is 63%.
Turning to “422269 (antisense eG*eA*dG*d[5mC]*dG*d[5mC]*dG*dG*dA*dA*dG*dA*dA*dG*dG*eG*eA*e[5mC]*eG*eG) [compound 422269]”, the “% Inhibition” value is 27%.
On to “422270 (antisense eT*eG*dA*dG*d[5mC]*dG*d[5mC]*dG*dG*dA*dA*dG*dA*dA*dG*eG*eG*eA*e[5mC]*eG) [compound 422270]”, for which the “% Inhibition” value came out at 15%.
In the case of “422271 (antisense e[5mC]*eT*dG*dA*dG*d[5mC]*dG*d[5mC]*dG*dG*dA*dA*dG*dA*dA*eG*eG*eG*eA*e[5mC]) [compound 422271]”, the “% Inhibition” value came to 32%.
On to “422272 (antisense eA*e[5mC]*dT*dG*dA*dG*d[5mC]*dG*d[5mC]*dG*dG*dA*dA*dG*dA*eA*eG*eG*eG*eA) [compound 422272]”, for which the “% Inhibition” value turned out to be 12%.
For the substance “422273 (antisense eT*eA*d[5mC]*dT*dG*dA*dG*d[5mC]*dG*d[5mC]*dG*dG*dA*dA*dG*eA*eA*eG*eG*eG) [compound 422273]”, the “% Inhibition” value amounted to 0%.
Still for that read-out and setting: to “422274 (antisense eT*eT*dA*d[5mC]*dT*dG*dA*dG*d[5mC]*dG*d[5mC]*dG*dG*dA*dA*eG*eA*eA*eG*eG) [compound 422274]” belongs 24%.
In the case of “422275 (antisense eG*eT*dT*dA*d[5mC]*dT*dG*dA*dG*d[5mC]*dG*d[5mC]*dG*dG*dA*eA*eG*eA*eA*eG) [compound 422275]”, the “% Inhibition” value is listed as 42%.
Take “422276 (antisense eG*eG*dT*dT*dA*d[5mC]*dT*dG*dA*dG*d[5mC]*dG*d[5mC]*dG*dG*eA*eA*eG*eA*eA) [compound 422276]”: the “% Inhibition” value stood at 66%.

The same series, now with this note: gapmers targeted to nucleobases 4868 to 4899 of SEQ ID NO: 1, Table 8.
Take “422290 (antisense eT*e[5mC]*dT*dG*d[5mC]*dA*dG*dG*dA*dG*d[5mC]*dG*dG*d[5mC]*d[5mC]*eT*eA*eA*eA*eT) [compound 422290]”: the “% Inhibition of human Factor 7 mRNA levels” value was determined as 50%.
Still for that read-out and setting: for “422291 (antisense eT*eT*d[5mC]*dT*dG*d[5mC]*dA*dG*dG*dA*dG*d[5mC]*dG*dG*d[5mC]*e[5mC]*eT*eA*eA*eA) [compound 422291]” the value was 53%; for “422293 (antisense eA*eG*dT*dT*d[5mC]*dT*dG*d[5mC]*dA*dG*dG*dA*dG*d[5mC]*dG*eG*e[5mC]*e[5mC]*eT*eA) [compound 422293]”, 69%; for “422297 (antisense e[5mC]*e[5mC]*d[5mC]*dG*dA*dG*dT*dT*d[5mC]*dT*dG*d[5mC]*dA*dG*dG*eA*eG*e[5mC]*eG*eG) [compound 422297]”, 63%.

The same series, now with this note: oligonucleotides targeted to nucleobases 11830 to 11869 of SEQ ID NO: 1 (Table 9).
For “422251 (antisense eG*e[5mC]*dT*dG*dG*d[5mC]*dT*dG*dA*dG*dG*dA*dG*dA*d[5mC]*eA*eA*eT*eG*eG) [compound 422251]”, the “% Inhibition (human Factor 7 mRNA levels)” value is 36%.

Still in this series, the particulars now being: oligonucleotides targeted to nucleobases 13760 to 13789 of SEQ ID NO: 1 (Table 10).
Consider “422253 (antisense e[5mC]*e[5mC]*dG*d[5mC]*d[5mC]*dG*dG*d[5mC]*dT*d[5mC]*dT*dG*d[5mC]*dT*d[5mC]*eA*eT*e[5mC]*e[5mC]*e[5mC]) [compound 422253]”, for which the “% Inhibition (human Factor 7 mRNA levels)” value was determined as 61%.
Take “422254 (antisense e[5mC]*e[5mC]*d[5mC]*dG*d[5mC]*d[5mC]*dG*dG*d[5mC]*dT*d[5mC]*dT*dG*d[5mC]*dT*e[5mC]*eA*eT*e[5mC]*e[5mC]) [compound 422254]”: the “% Inhibition (human Factor 7 mRNA levels)” value was found to be 42%.
Turning to “422255 (antisense eA*e[5mC]*d[5mC]*d[5mC]*dG*d[5mC]*d[5mC]*dG*dG*d[5mC]*dT*d[5mC]*dT*dG*d[5mC]*eT*e[5mC]*eA*eT*e[5mC]) [compound 422255]”, the “% Inhibition (human Factor 7 mRNA levels)” value was determined as 30%.
Turning to “422256 (antisense e[5mC]*eA*d[5mC]*d[5mC]*d[5mC]*dG*d[5mC]*d[5mC]*dG*dG*d[5mC]*dT*d[5mC]*dT*dG*e[5mC]*eT*e[5mC]*eA*eT) [compound 422256]”, the “% Inhibition (human Factor 7 mRNA levels)” value was 29%.
Take “422257 (antisense e[5mC]*e[5mC]*dA*d[5mC]*d[5mC]*d[5mC]*dG*d[5mC]*d[5mC]*dG*dG*d[5mC]*dT*d[5mC]*dT*eG*e[5mC]*eT*e[5mC]*eA) [compound 422257]”: the “% Inhibition (human Factor 7 mRNA levels)” value is 65%.
For the substance “422258 (antisense eG*e[5mC]*d[5mC]*dA*d[5mC]*d[5mC]*d[5mC]*dG*d[5mC]*d[5mC]*dG*dG*d[5mC]*dT*d[5mC]*eT*eG*e[5mC]*eT*e[5mC]) [compound 422258]”, the “% Inhibition (human Factor 7 mRNA levels)” value is on record as 66%.
For the substance “422259 (antisense e[5mC]*eG*d[5mC]*d[5mC]*dA*d[5mC]*d[5mC]*d[5mC]*dG*d[5mC]*d[5mC]*dG*dG*d[5mC]*dT*e[5mC]*eT*eG*e[5mC]*eT) [compound 422259]”, the “% Inhibition (human Factor 7 mRNA levels)” value is recorded as 61%.
The same measure, in the same setting: for “422260 (antisense eG*e[5mC]*dG*d[5mC]*d[5mC]*dA*d[5mC]*d[5mC]*d[5mC]*dG*d[5mC]*d[5mC]*dG*dG*d[5mC]*eT*e[5mC]*eT*eG*e[5mC]) [compound 422260]” the value was 56%; for “422261 (antisense eT*eG*d[5mC]*dG*d[5mC]*d[5mC]*dA*d[5mC]*d[5mC]*d[5mC]*dG*d[5mC]*d[5mC]*dG*dG*e[5mC]*eT*e[5mC]*eT*eG) [compound 422261]”, 47%.
Still for that read-out and setting: to “422262 (antisense e[5mC]*eT*dG*d[5mC]*dG*d[5mC]*d[5mC]*dA*d[5mC]*d[5mC]*d[5mC]*dG*d[5mC]*d[5mC]*dG*eG*e[5mC]*eT*e[5mC]*eT) [compound 422262]” belongs 0%.

Staying with this series, now noted: oligonucleotides targeted to nucleobases 14707 to 14732 of SEQ ID NO: 1 (Table 11).
In the case of “422277 (antisense e[5mC]*e[5mC]*dT*dG*dA*dG*dG*d[5mC]*d[5mC]*dA*dG*d[5mC]*dA*dG*dA*eT*e[5mC]*eA*e[5mC]*eG) [compound 422277]”, the “% Inhibition (human Factor 7 mRNA levels)” value was found to be 56%.
In the case of “422278 (antisense eG*e[5mC]*d[5mC]*dT*dG*dA*dG*dG*d[5mC]*d[5mC]*dA*dG*d[5mC]*dA*dG*eA*eT*e[5mC]*eA*e[5mC]) [compound 422278]”, the “% Inhibition (human Factor 7 mRNA levels)” value is 64%.
On to “422279 (antisense eA*eG*d[5mC]*d[5mC]*dT*dG*dA*dG*dG*d[5mC]*d[5mC]*dA*dG*d[5mC]*dA*eG*eA*eT*e[5mC]*eA) [compound 422279]”, for which the “% Inhibition (human Factor 7 mRNA levels)” value is 56%.
As for “422280 (antisense e[5mC]*eA*dG*d[5mC]*d[5mC]*dT*dG*dA*dG*dG*d[5mC]*d[5mC]*dA*dG*d[5mC]*eA*eG*eA*eT*e[5mC]) [compound 422280]”, the “% Inhibition (human Factor 7 mRNA levels)” value was 52%.
Same read-out and setting: to “422281 (antisense eG*e[5mC]*dA*dG*d[5mC]*d[5mC]*dT*dG*dA*dG*dG*d[5mC]*d[5mC]*dA*dG*e[5mC]*eA*eG*eA*eT) [compound 422281]” belongs 57%.
For “422282 (antisense eA*eG*d[5mC]*dA*dG*d[5mC]*d[5mC]*dT*dG*dA*dG*dG*d[5mC]*d[5mC]*dA*eG*e[5mC]*eA*eG*eA) [compound 422282]”, the “% Inhibition (human Factor 7 mRNA levels)” value is given as 48%.
For “422283 (antisense e[5mC]*eA*dG*d[5mC]*dA*dG*d[5mC]*d[5mC]*dT*dG*dA*dG*dG*d[5mC]*d[5mC]*eA*eG*e[5mC]*eA*eG) [compound 422283]”, the “% Inhibition (human Factor 7 mRNA levels)” value is recorded as 50%.

Staying with this series, now noted: oligonucleotides targeted to nucleobases 15098 to 15122 of SEQ ID NO: 1 (Table 12).
In the case of “422284 (antisense e[5mC]*eA*d[5mC]*dA*d[5mC]*dA*dT*dG*dG*dA*dG*dT*d[5mC]*dA*dG*e[5mC]*eA*eT*e[5mC]*eG) [compound 422284]”, the “% Inhibition (human Factor 7 mRNA levels)” value is 43%.
Consider “422285 (antisense eG*e[5mC]*dA*d[5mC]*dA*d[5mC]*dA*dT*dG*dG*dA*dG*dT*d[5mC]*dA*eG*e[5mC]*eA*eT*e[5mC]) [compound 422285]”, for which the “% Inhibition (human Factor 7 mRNA levels)” value is given as 39%.
As to “422286 (antisense eA*eG*d[5mC]*dA*d[5mC]*dA*d[5mC]*dA*dT*dG*dG*dA*dG*dT*d[5mC]*eA*eG*e[5mC]*eA*eT) [compound 422286]”, the “% Inhibition (human Factor 7 mRNA levels)” value is reported as 53%.
The same measure, in the same setting: for “422287 (antisense e[5mC]*eA*dG*d[5mC]*dA*d[5mC]*dA*d[5mC]*dA*dT*dG*dG*dA*dG*dT*e[5mC]*eA*eG*e[5mC]*eA) [compound 422287]” the value was 41%.
As for “422288 (antisense eA*e[5mC]*dA*dG*d[5mC]*dA*d[5mC]*dA*d[5mC]*dA*dT*dG*dG*dA*dG*eT*e[5mC]*eA*eG*e[5mC]) [compound 422288]”, the “% Inhibition (human Factor 7 mRNA levels)” value was 44%.
Turning to “422289 (antisense eG*eA*d[5mC]*dA*dG*d[5mC]*dA*d[5mC]*dA*d[5mC]*dA*dT*dG*dG*dA*eG*eT*e[5mC]*eA*eG) [compound 422289]”, the “% Inhibition (human Factor 7 mRNA levels)” value is listed as 34%.
